Consider 3 molecules from EP0531958A1, “6-Aminoquinolones, their synthesis and their use as antibacterial agents” (MEDIOLANUM FARMACEUTICI S.P.A., priority 1991, dated 1993).

Common to all, as to assay type: cell-based
The test system of one assay is Gram +. The assay is described as follows: MIC test, average over the 5 gram-positive test germs. Conditions: 24 h. On the procedure: (§1) As to the antibacterial activity, there was determined the Least (Minimum) Inhibiting Concentration (MIC), by working according to the following operative conditions.
(§2) There were used suspensions of test germs (5 gram-positive and 15 gram-negative) having a known titre, kept freezed at -80°C and diluted, at the time of use, in peptonized water up to a concentration of 1-2.10⁷ cfu/ml.
(§3) A few mg of the products, according to the invention were weighed sufficient for preparing parent solutions in DMSO + NaOH (1N) containing 2560 µg/ml (64µg/ml/dish). From the thus prepared parent solutions there were prepared 12 serial dilutions (1:2) down to the concentration of 1.25 µg/ml.
(§4) 0.5 ml of the different dilutions of each product were distributed on dishes containing 19.5 ml of agarized medium (TSA), maintained in a fluid state at the temperature of 50°C. After slight stirring, the dishes were made to solidify and dry under hood (laminar flow).
(§5) The MIC tests (Least or "Minimum" Inhibiting Concentration) were performed by using a Steers multiwell inoculator having 36 wells, each containing 200 µl of bacterial suspension.
(§6) After inoculation, the dishes were placed into a thermostat and checked after 24 h of incubation at 35°C.
(§7) The MIC is defined as the lowermost product concentration (µg/ml) inhibiting the visible growth of the microorganisms.

Assay [1] deals with Providencia stuardii CNUR 5. The assay is described as follows: MIC test, agar dilution with Steers multiwell inoculator. The following applies: CNUR5, TSA dishes, 24 h at 35°C, read-out: Minimum Inhibiting Concentration. On the procedure:
as §1, §2, §3, §4, §5, §6, §7
In general terms: In agar dilution the substance is mixed into plates at graded concentrations.

For another assay, the system named is Escherichia coli ISF 432. The assay is described as above. Conditions: ISF432, TSA dishes, 24 h at 35°C, read-out: Minimum Inhibiting Concentration. On the procedure:
as §1, §2, §3, §4, §5, §6, §7

The subject of another assay is Proteus vulgaris CNUR 6. Described as above. Conditions: CNUR6, TSA dishes, 24 h at 35°C, read-out: Minimum Inhibiting Concentration. On the procedure:
as §1, §2, §3, §4, §5, §6, §7

The test system of assay [2] is Escherichia coli ATCC 8739. The description is as above. The following applies: ATCC8739, TSA dishes, 24 h at 35°C, read-out: Minimum Inhibiting Concentration. On the procedure: as §1, §2, §3, §4, §5, §6, §7
Assay [3] deals with Enterobacter cloacae OMNF 1174. The assay is described as above. Conditions: OMNF1174, TSA dishes, 24 h at 35°C, read-out: Minimum Inhibiting Concentration. On the procedure:
as §1, §2, §3, §4, §5, §6, §7

Assay [4] relates to Acinebacter calcoloaceticus OSMPV 1130. Described as above. Conditions: TSA dishes, 24 h at 35°C, read-out: Minimum Inhibiting Concentration. The procedure:
as §1, §2, §3, §4, §5, §6, §7

In the next assay the test system is Escherichia coli CNUR 1. Described as above. The following applies: CNUR1, TSA dishes, 24 h at 35°C, read-out: Minimum Inhibiting Concentration. The procedure:
as §1, §2, §3, §4, §5, §6, §7

For assay [5], the system named is Staphylococcus epidermidis HCF Berset C. Described as above. Conditions: TSA dishes, 24 h at 35°C, read-out: Minimum Inhibiting Concentration. The procedure:
as §1, §2, §3, §4, §5, §6, §7

Assay [6] deals with Pseudomonas aeruginosa ATCC 9027. The assay is described as above. Conditions: ATCC9027, TSA dishes, 24 h at 35°C, read-out: Minimum Inhibiting Concentration. On the procedure:
as §1, §2, §3, §4, §5, §6, §7

The test system of assay [7] is Staphylococcus aureus ATCC 6538. The description is as above. Conditions: ATCC6538, TSA dishes, 24 h at 35°C, read-out: Minimum Inhibiting Concentration. On the procedure: as §1, §2, §3, §4, §5, §6, §7
In assay [8] the test system is Staphylococcus epidermidis CPHL A2. The assay is described as above. Conditions: CPHLA2, TSA dishes, 24 h at 35°C, read-out: Minimum Inhibiting Concentration. The procedure: as §1, §2, §3, §4, §5, §6, §7
For assay [9], the system named is Staphylococcus aureus MPR 5. The description is as above. Conditions: MPR5, TSA dishes, 24 h at 35°C, read-out: Minimum Inhibiting Concentration. The procedure: as §1, §2, §3, §4, §5, §6, §7
Assay [10] deals with Enterobacter cloacae OMNF 1153. The assay is described as above. The following applies: OMNF1153, TSA dishes, 24 h at 35°C, read-out: Minimum Inhibiting Concentration. The procedure:
as §1, §2, §3, §4, §5, §6, §7

For assay [11], the system named is Pseudomonas aeruginosa CNUR 2. The assay is described as above. The following applies: CNUR2, TSA dishes, 24 h at 35°C, read-out: Minimum Inhibiting Concentration. The procedure: as §1, §2, §3, §4, §5, §6, §7
Assay [12] concerns Klebsiella pneumoniae ATCC 10031. Described as above. Conditions: ATCC10031, TSA dishes, 24 h at 35°C, read-out: Minimum Inhibiting Concentration. The procedure:
as §1, §2, §3, §4, §5, §6, §7

The test system of the next assay is Escherichia coli 120. The assay is described as above. Conditions: TSA dishes, 24 h at 35°C, read-out: Minimum Inhibiting Concentration. On the procedure: as §1, §2, §3, §4, §5, §6, §7
In assay [13] the test system is Pseudomonas aeruginosa CNUR 4. Described as above. The following applies: CNUR4, TSA dishes, 24 h at 35°C, read-out: Minimum Inhibiting Concentration. The procedure:
as §1, §2, §3, §4, §5, §6, §7

Another assay relates to Shighella enteritidis. The description is as above. Conditions: TSA dishes, 24 h at 35°C, read-out: Minimum Inhibiting Concentration. On the procedure: as §1, §2, §3, §4, §5, §6, §7
Assay [14] deals with Streptococcus facealis LEP Br. The description is as above. Conditions: TSA dishes, 24 h at 35°C, read-out: Minimum Inhibiting Concentration. On the procedure: as §1, §2, §3, §4, §5, §6, §7
The test system of a further assay is Escherichia coli CNUR 8. The description is as above. Conditions: CNUR8, TSA dishes, 24 h at 35°C, read-out: Minimum Inhibiting Concentration. On the procedure: as §1, §2, §3, §4, §5, §6, §7
A further assay deals with Gram -. The assay is described as follows: MIC test, average over the 15 gram-negative test germs. The following applies: 24 h. The procedure:
as §1, §2, §3, §4, §5, §6, §7

[15] abbreviates: geometrical average of the MIC over the 5 Gram + strains, read-out: Geometrical Average.
[16] abbreviates: geometrical average of the MIC over the 15 Gram - strains, read-out: Geometrical Average.
Where [17] appears, read: mean log of the MIC over the 15 Gram - strains, read-out: Log (converted).

Values after ≈ are worked out from the molar mass of the structure shown. Read-outs that look alike come from different tables or passages of the source.

Regarding `Cc1c(N2CCSCC2)c(N)cc2c(=O)c(C(=O)O)cn(C3CC3)c12` [Compound 35], the MIC with Gram + (setting [15]) is 0.574 µg/mL; with Gram + (read-out: Log (converted)), 0.574 µg/mL (≈ 1.6 µM); in assay [1] it was 1 µg/mL (≈ 2.78 µM); in the assay on Escherichia coli ISF 432, 0.06 µg/mL (≈ 0.167 µM); in the assay on Proteus vulgaris CNUR 6, 64 µg/mL (≈ 178 µM); in assay [2], 0.06 µg/mL (≈ 0.167 µM). Moreover, the MIC in assay [3] was 1 µg/mL (≈ 2.78 µM); in assay [4], 1 µg/mL (≈ 2.78 µM); in the assay with Escherichia coli CNUR 1 it was 0.5 µg/mL (≈ 1.39 µM); in [5], 1 µg/mL (≈ 2.78 µM); in assay [6], 4 µg/mL (≈ 11.1 µM); in assay [7], 0.25 µg/mL (≈ 0.696 µM). In addition, the MIC in [8] turned out to be 0.5 µg/mL (≈ 1.39 µM); in assay [9], 0.25 µg/mL (≈ 0.696 µM); in assay [10], 0.5 µg/mL (≈ 1.39 µM); in assay [11], 8 µg/mL (≈ 22.3 µM); in assay [12], 0.03 µg/mL (≈ 0.0835 µM); in the assay with Escherichia coli 120 it was 0.25 µg/mL (≈ 0.696 µM). Also, the MIC in assay [13] is 64 µg/mL (≈ 178 µM); in the assay on Shighella enteritidis, 0.5 µg/mL (≈ 1.39 µM); in [14], 2 µg/mL (≈ 5.56 µM); in the assay with Escherichia coli CNUR 8, 0.25 µg/mL (≈ 0.696 µM); with Gram - (setting [16]), 0.863 µg/mL (≈ 2.4 µM); with Gram - (setting [17]) it was 0.863 µg/mL (≈ 2.4 µM).

Turning to `CN1CCN(c2nc3c(cc2N)c(=O)c(C(=O)O)cn3C2CC2)CC1` [Compound 40, chlorhydrate of the 6-amino-1-cyclopropyl-7-(4-methyl-1-piperazinyl)-1,4-dihydro-4-oxo-1,8-naphthyridine carboxylic acid], the MIC in the assay on Gram + (setting [15]) was 6.06 µg/mL; in the assay with Gram + (read-out: Log (converted)) it was 6.07 µg/mL; in assay [1], 2 µg/mL; in the assay on Escherichia coli ISF 432, 0.03 µg/mL; in the assay on Proteus vulgaris CNUR 6, 64 µg/mL; in [2], 0.12 µg/mL. The MIC in assay [3] is 0.12 µg/mL; in assay [4] it was 2 µg/mL; with Escherichia coli CNUR 1 it was 0.12 µg/mL; in assay [5], 4 µg/mL; in [6], 2 µg/mL; in assay [7], 4 µg/mL. Besides, the MIC was found to be 4 µg/mL in assay [8]; 4 µg/mL in assay [9]; 0.12 µg/mL in [10]; 4 µg/mL in assay [11]; 0.03 µg/mL in assay [12]; 0.06 µg/mL with Escherichia coli 120. The MIC in assay [13] was 64 µg/mL; with Shighella enteritidis it was 0.12 µg/mL; in [14], 32 µg/mL; in the assay on Escherichia coli CNUR 8 it was 0.06 µg/mL; in the assay on Gram - (setting [16]) it was 0.466 µg/mL; with Gram - (setting [17]), 0.466 µg/mL.

As for `CN1CCN(c2cc3c(cc2N)c(=O)c(C(=O)O)cn3C2CC2)CC1` [Compound 8], the MIC is 4 µg/mL (≈ 11.7 µM) in the assay on Gram + (read-out: Log (converted)); 8 µg/mL (≈ 23.4 µM) in assay [1]; 0.03 µg/mL (≈ 0.0876 µM) in the assay with Escherichia coli ISF 432; 64 µg/mL (≈ 187 µM) in the assay with Proteus vulgaris CNUR 6; 0.25 µg/mL (≈ 0.73 µM) in assay [2]; 0.25 µg/mL (≈ 0.73 µM) in assay [3]. Moreover, the MIC in assay [4] is 4 µg/mL (≈ 11.7 µM); in the assay with Escherichia coli CNUR 1, 0.25 µg/mL (≈ 0.73 µM); in assay [5], 4 µg/mL (≈ 11.7 µM); in assay [6] it was 4 µg/mL (≈ 11.7 µM); in assay [7], 2 µg/mL (≈ 5.84 µM); in [8] it was 2 µg/mL (≈ 5.84 µM). Besides, the MIC was found to be 2 µg/mL (≈ 5.84 µM) in [9]; 0.25 µg/mL (≈ 0.73 µM) in assay [10]; 16 µg/mL (≈ 46.7 µM) in assay [11]; 0.03 µg/mL (≈ 0.0876 µM) in assay [12]; 0.12 µg/mL (≈ 0.35 µM) in the assay on Escherichia coli 120; 64 µg/mL (≈ 187 µM) in assay [13]. Moreover, the MIC is 0.25 µg/mL (≈ 0.73 µM) with Shighella enteritidis; 32 µg/mL (≈ 93.5 µM) in assay [14]; 0.12 µg/mL (≈ 0.35 µM) in the assay with Escherichia coli CNUR 8; 0.861 µg/mL (≈ 2.51 µM) with Gram - (setting [16]); 0.861 µg/mL (≈ 2.51 µM) in the assay with Gram - (setting [17]).
